Tests used:
calreticulin = experiment: Calreticulin expression on infected L929 cell membrane; assay type: cell-based; conditions: L929 infected with MHV-A59 (FIG. 3)
Procedure: To determine if the P2Et extract of the invention can inhibit virus infection L929 cells were seeded in 12-well plates at a concentration of […] for well and cultured overnight. Cells were pretreated for 2 h with the P2Et or controls, washed twice with PBS 1× and inoculated with 200 μl of the virus suspension to 0.1, 0.01 or 0.001 MOI in DMEM, 1 h at room temperature in mechanical agitation. The virus inoculum was removed, the cells were treated again with extracts for 6, 12 and 24 h. Supernatants were collected for qPCR and plaque assays. The cells were collected for evaluation of proteins by western blot and ROS assays by flow cytometry.
Previously, we have shown that standardized P2Et extract induces immunogenic cell death (ICD), here the expression of calreticulin, a marker of ICD, was evaluated on the L929 cell membrane infected cells.

SARS-CoV-2 virus = conditions: cited from earlier work

Row | Compound | expression of calreticulin induced by viral infection on L929 cell surface (calreticulin) | suppression of viral activity (SARS-CoV-2 virus)
1 | CC(=O)N[C@@H](CS)C(=O)O [NAC, N-Acetylcysteine] | decreased | –
2 | CCN(CC)CCCC(C)Nc1ccnc2cc(Cl)ccc12 (stereo not shown) [chloroquine] | decreased | –
3 | O=c1c(O)c(-c2ccc(O)c(O)c2)oc2cc(O)cc(O)c12 [quercetin] | decreased | –
4 | epigallocatechin-zinc gallate [EGCG-Zn^+2] | – | greater than 99%

Source: patent US20230190848A1 (priority 2021, published 2023)
